Experimental data as given in ChEMBL document CHEMBL1201862, “PubChem BioAssay data set” (2004).
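Values below derive from 48-hour exposures of cells grown in 96-well plates, with endpoints linearly interpolated between the two concentrations bracketing the appropriate inhibition level. GI50 is the concentration that inhibits growth by half.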 Calls of active or inactive are those of the source. Rule as the data show it: active = GI50 up to about 1.1 µM and inactive = higher.

Columns and labels:
Assay in all cases: DTP human tumour cell line panel, 48 h
COLO 205 = system: COLO 205
CCRF-CEM = system: CCRF-CEM
TK-10 = system: TK-10
M14 = system: M14
U-251 = system: U-251
SK-MEL-28 = system: SK-MEL-28
A498 = system: A498
EKVX = system: EKVX
RPMI-8226 = system: RPMI-8226
RXF 393 = system: RXF 393
OVCAR-5 = system: OVCAR-5
LOX IMVI = system: LOX IMVI
NCI-H226 = system: NCI-H226
SN12C = system: SN12C
SF-268 = system: SF-268
SR = system: SR
SF-295 = system: SF-295

Measured: GI50

CCCc1cc(OC(=O)c2c(O)cc(OC)cc2CCC)cc(O)c1C(=O)O
inactive: COLO 205 26.4 µM | CCRF-CEM 32.8 µM | TK-10 48.5 µM | M14 28.4 µM | U-251 23.9 µM | SK-MEL-28 28.2 µM | A498 28.9 µM | EKVX 26.2 µM | RPMI-8226 24.2 µM | RXF 393 16.6 µM | OVCAR-5 35 µM | LOX IMVI 23.8 µM

Cc1nc2c3c(ccc2nc1O)C(=O)c1ccccc1C3=O
inactive: COLO 205 > 100 µM | NCI-H226 29.2 µM | TK-10 > 100 µM | M14 > 100 µM | SN12C 42.2 µM | U-251 54.1 µM | SK-MEL-28 > 100 µM | A498 20.3 µM | EKVX 23.1 µM | SF-268 15.6 µM | RXF 393 13.1 µM | SR > 100 µM | SF-295 > 100 µM | OVCAR-5 > 100 µM | LOX IMVI 41.6 µM

C/N=C(\N=c1/ss/c(=N\C)n1C)N(C)C.[O-][Cl+3]([O-])([O-])O
inactive: COLO 205 28.2 µM | NCI-H226 45.2 µM | TK-10 > 100 µM | M14 > 100 µM | SN12C > 100 µM | U-251 > 100 µM | SK-MEL-28 > 100 µM | A498 29.2 µM | EKVX > 100 µM | RPMI-8226 74.6 µM | SF-268 > 100 µM | RXF 393 > 100 µM | SR 70.8 µM | SF-295 > 100 µM | OVCAR-5 > 100 µM | LOX IMVI 45.9 µM

O=[PH](O)c1cc2c3ccccc3ccc2c2ccccc12
inactive: COLO 205 > 100 µM | CCRF-CEM > 100 µM | NCI-H226 13.9 µM | TK-10 > 100 µM | M14 > 100 µM | SN12C > 100 µM | U-251 > 100 µM | SK-MEL-28 > 100 µM | EKVX > 100 µM | RPMI-8226 > 100 µM | SF-268 > 100 µM | RXF 393 > 100 µM | SF-295 > 100 µM | LOX IMVI > 100 µM

Cc1cccc(C)c1NC(=O)/C(=N/NC(N)=S)C(C)C(=O)c1ccc(Cl)cc1 (stereo not drawn)
inactive: COLO 205 > 100 µM | CCRF-CEM > 100 µM | NCI-H226 > 100 µM | TK-10 > 100 µM | M14 > 100 µM | SN12C > 100 µM | U-251 > 100 µM | SK-MEL-28 > 100 µM | A498 > 100 µM | EKVX > 100 µM | RPMI-8226 > 100 µM | SF-268 > 100 µM | SR > 100 µM | SF-295 > 100 µM | OVCAR-5 > 100 µM

O=C1/C(=C/c2cc(O)c(O)c(O)c2)Oc2cc(O)cc(OC3OC(CO)C(O)C(O)C3O)c21 (stereo not drawn)
inactive: COLO 205 22.2 µM | CCRF-CEM 17.5 µM | TK-10 30.5 µM | M14 21.5 µM | SN12C 17.3 µM | U-251 > 10 µM | SK-MEL-28 46.3 µM | A498 23.9 µM | EKVX 43.6 µM | RPMI-8226 20.2 µM | SF-295 16.5 µM | LOX IMVI 1.73 µM

CC/C(C)=C1\CCC(CN(C)C)C1=O (stereo not drawn)
inactive: CCRF-CEM 15.9 µM | NCI-H226 > 100 µM | TK-10 17.3 µM | M14 19.5 µM | SN12C 20.1 µM | SK-MEL-28 22.9 µM | A498 20.6 µM | EKVX 21.9 µM | RPMI-8226 2.82 µM | SF-268 25.4 µM | RXF 393 20.7 µM | SR 19.3 µM | SF-295 > 100 µM | OVCAR-5 19.1 µM | LOX IMVI 20.6 µM

COc1cc2c(cc1OC)C1C=NC(C(=O)O)(C2)c2ccccc21 (stereo not drawn)
inactive: COLO 205 > 100 µM | CCRF-CEM 52.5 µM | NCI-H226 > 100 µM | TK-10 > 100 µM | M14 > 100 µM | SN12C > 100 µM | U-251 > 100 µM | A498 > 100 µM | EKVX > 100 µM | RPMI-8226 > 100 µM | SF-268 > 100 µM | RXF 393 > 100 µM | SR > 100 µM | SF-295 > 100 µM | OVCAR-5 > 100 µM | LOX IMVI > 100 µM

C=CCc1cc(-c2cc(CC=C)c(O)c(CNCCCl)c2)cc(CNCCCl)c1O
inactive: COLO 205 17.9 µM | CCRF-CEM 18.3 µM | NCI-H226 18.3 µM | TK-10 19.6 µM | M14 18 µM | SN12C 19.8 µM | U-251 16.6 µM | SK-MEL-28 18.6 µM | A498 18.7 µM | RPMI-8226 21.4 µM | SF-268 22.6 µM | SF-295 17.5 µM | LOX IMVI 15.3 µM

CN1C(=O)C(=CN)C(=O)N(C)C1=O
inactive: CCRF-CEM > 100 µM | NCI-H226 > 100 µM | TK-10 > 100 µM | M14 > 100 µM | SN12C > 100 µM | U-251 > 100 µM | SK-MEL-28 > 100 µM | EKVX > 100 µM | RPMI-8226 > 100 µM | SF-268 > 100 µM | RXF 393 > 100 µM | SR > 100 µM | SF-295 > 100 µM | OVCAR-5 > 100 µM | LOX IMVI > 100 µM

N/N=C1\C(=O)N(C2CCCCC2)C(=O)C1C(=O)NC1CCCCC1 (stereo not drawn)
inactive: COLO 205 > 100 µM | CCRF-CEM > 100 µM | NCI-H226 > 100 µM | M14 > 100 µM | SN12C 31.6 µM | U-251 > 100 µM | SK-MEL-28 81.8 µM | A498 > 100 µM | EKVX > 100 µM | RPMI-8226 > 100 µM | SF-268 > 100 µM | SR > 100 µM | SF-295 > 100 µM | OVCAR-5 > 100 µM | LOX IMVI > 100 µM

Cc1ccc2c(c1)CNc1ccc(C)cc1CN2
inactive: COLO 205 > 100 µM | CCRF-CEM > 100 µM | NCI-H226 > 100 µM | M14 > 100 µM | SN12C > 100 µM | U-251 > 100 µM | EKVX > 100 µM | RPMI-8226 > 100 µM | SF-268 > 100 µM | SR > 100 µM | SF-295 > 100 µM | OVCAR-5 > 100 µM | LOX IMVI > 100 µM

O=C1C(Cl)C(c2ccccc2)N1n1cnc2ccccc2c1=O (stereo not drawn)
inactive: COLO 205 > 100 µM | CCRF-CEM > 100 µM | NCI-H226 28.4 µM | TK-10 > 100 µM | M14 > 100 µM | SN12C > 100 µM | U-251 > 100 µM | SK-MEL-28 > 100 µM | EKVX 44.2 µM | RPMI-8226 54.2 µM | SF-268 85.3 µM | RXF 393 76.9 µM | SR 36.1 µM | SF-295 > 100 µM | OVCAR-5 > 100 µM | LOX IMVI > 100 µM

COC(=O)C1Cc2c([nH]c3ccccc23)C(C2CCCCC2)N1 (stereo not drawn)
inactive: COLO 205 > 100 µM | CCRF-CEM > 100 µM | NCI-H226 > 100 µM | TK-10 > 100 µM | M14 > 100 µM | SN12C > 100 µM | U-251 > 100 µM | SK-MEL-28 > 100 µM | EKVX > 100 µM | SF-268 > 100 µM | SR > 100 µM | SF-295 > 100 µM | OVCAR-5 > 100 µM | LOX IMVI > 100 µM

CC1CC(C2=CC=CCS2)=Nc2ccccc2S1 (stereo not drawn)
inactive: COLO 205 > 100 µM | CCRF-CEM > 100 µM | TK-10 > 100 µM | M14 > 100 µM | SN12C > 100 µM | U-251 > 100 µM | SK-MEL-28 > 100 µM | A498 > 100 µM | EKVX > 100 µM | RPMI-8226 97.5 µM | SF-268 > 100 µM | RXF 393 > 100 µM | SF-295 > 100 µM | OVCAR-5 > 100 µM | LOX IMVI > 100 µM

C=CCN1COc2c(cc3c4c(cccc24)C(=O)O3)C1
inactive: COLO 205 17.9 µM | CCRF-CEM 19.6 µM | NCI-H226 > 100 µM | TK-10 21.7 µM | M14 22.9 µM | SN12C 21 µM | U-251 > 100 µM | SK-MEL-28 24.6 µM | A498 21.5 µM | EKVX 35.7 µM | RPMI-8226 33.6 µM | SF-268 48.6 µM | RXF 393 > 10 µM | SF-295 35.1 µM | OVCAR-5 36.6 µM | LOX IMVI > 10 µM

CCOc1ccc(NC(=O)CC#N)cc1
inactive: COLO 205 > 100 µM | CCRF-CEM > 100 µM | NCI-H226 > 100 µM | TK-10 > 100 µM | M14 > 100 µM | SN12C > 100 µM | U-251 > 100 µM | SK-MEL-28 > 100 µM | A498 > 100 µM | EKVX > 100 µM | SF-268 > 100 µM | RXF 393 > 100 µM | SR > 100 µM | SF-295 > 100 µM | OVCAR-5 > 100 µM | LOX IMVI > 100 µM

COC1=CC(=O)[C@H]2[C@H](C)C(c3ccccc3)[C@@]2(C)C1=O (stereo partly drawn)
inactive: COLO 205 > 100 µM | CCRF-CEM > 100 µM | TK-10 > 100 µM | M14 > 100 µM | U-251 > 100 µM | SK-MEL-28 > 100 µM | A498 > 100 µM | EKVX > 100 µM | RPMI-8226 > 100 µM | SF-268 > 100 µM | RXF 393 > 100 µM | SR > 100 µM | SF-295 > 100 µM | OVCAR-5 > 100 µM | LOX IMVI > 100 µM

COc1ccc2cc3[n+](cc2c1OC)CCc1cc(O)c(O)cc1-3
inactive: COLO 205 > 100 µM | CCRF-CEM > 100 µM | NCI-H226 > 100 µM | TK-10 > 100 µM | M14 > 100 µM | SN12C > 100 µM | U-251 > 100 µM | A498 > 100 µM | EKVX > 100 µM | RPMI-8226 > 100 µM | SF-268 > 100 µM | RXF 393 > 100 µM | SF-295 > 100 µM | OVCAR-5 > 100 µM | LOX IMVI > 100 µM
